Laboratory results reported in patent US7563862B2, “Neural regeneration peptides and methods for their use in treatment of brain damage” (Neuren Pharmaceuticals Limited, priority 2001, dated 2009).
Ends that are not written are not given here.

Assays:
cerebellar microexplants = assay: cerebellar microexplant neuronal migration assay; type: cell-based, rat
Description: Another assay of this invention includes embodiments comprising cerebellar microexplants. Laminated cerebellar cortices of the two hemispheres were explanted from a P-4 Long Evans rat, cut into small pieces in GBSS with 0.65% D(+)glucose solution, and triturated by a 0.4 mm gauge needle and subsequently pressed through a 125 μm pore size sieve. The obtained microexplants were centrifuged (200×g) 2 times for a medium exchange into serum-free BSA-supplemented START V-medium (Biochrom). Finally, the microexplants were reconstituted in 500 μl STARTV-medium. For culturing, 38 μl of the cell suspension and 2 μl of migration-inducing factor (NRP-1) in 0.01 M sodium phosphate (pH 7.3) or phosphate alone (control) was incubated for 3 hours on a poly-D-lysine-coated cover slip in a 35 mm Petri dish under an atmosphere comprising 5% CO2 in air and 100% humidity at 34° C. Subsequently, 1 ml of STARTV-medium was added, and the cultures were evaluated after 2-3 days of culture (for example, see FIG. 2).
For immunohistochemistry and neuronal migration experiments, cerebellar microexplants were fixed after 2-3 days in culture after the following regime: microexplants were fixed by 2-minute, serial treatment with 0.4%; 1.2%; 3% paraformaldehyde/0.25% glutaraldehyde, respectively, followed by a 5 min incubation in 4% paraformaldehyde/0.25% glutaraldehyde in 0.1 M sodium phosphate (pH 7.4). MAP-2 was detected using the biotin-streptavidin/Cy3 detection system as described under the immunohistochemistry section of the thalamocortical OTCs.
Microexplants having a diameter between 100-120 μm were chosen for statistical analysis. For quantitative analysis of neuronal migration, an optical device having 10 consecutive rings of 100 μm diameter was applied over the microexplants. All neurons that had migrated after 48 h of culture were counted. Neurons located between circles 1 to 10 (0.1-1 mm) around the margin of the respective microexplant (see FIG. 2) were counted, and each circle was expressed as a percentage of total migrating cells. The unpaired Student's t-test was used for significance analysis. Results were given as mean values±standard deviation.

[1] = system: human olfactory ensheating glial (OEG) cells; assay: proliferation of olfactory ensheating glial (OEG) cells; type: cell-based; conditions: over 72 hours
Experimental: To determine whether NRPs might be useful for remyelinating neural tissues, we carried out studies using human olfactory ensheating glial (OEG) cells. OEG cells are being evaluated as a source population of cells for repopulating damaged neural tissue, such as that of the spinal cord. OEG cells were obtained from scrapings of human nasal mucosa using methods that are known in the art. Cells were grown in medium under control conditions and in the presence of NRP-7 SW (SEQ ID NO:24).

embryonic striatal cells = assay: haptotactic migration assay, striatal cells; type: cell-based, rat; conditions: dishes coated with 150 ng, 48 hrs
Description: To test the cell adhesion and neuronal migration inducing properties of the NRPs a haptotactic migration cell assay was developed (Lu et al.,2001). For this purpose Transwell® cell culture dishes (Costar) with fitting inserts having pores therein with a 12 μm pore size were used to cultivate striatal and neocortical cells. In general, a test agent was adhered to the surface of a culture dish and an insert having pores was placed in culture medium over but not in contact with the surface of the culture dish. Test cells were placed in the inserts, and any cells migrating through the pores and onto the surface of the culture dish reflected chemattractiveness by the test molecule. Under these conditions, the surface of the culture dish would, over time, release some NRP molecules into the culture medium. It can be appreciated that the concentration of “free” NRP would be greater nearer the surface of the culture dish than at distances farther away from the culture dish, thereby creating a gradient in NRP concentration. […] By counting the number and morphology of such migrant cells, effects of NRPs on neuronal migration and differentiation can be evaluated. […]
For seeding striatal cells, 1.5 ml of Neurobasal/B27 medium was put into the culture dishes and 0.5 ml of NeurobasaVB27 medium was put into the insert. The assay was ready for cell seeding. […]

Substance: NRP-1: rat 16 amino acid neural regeneration peptide purified from hippocampal OTC supernatant, Tyr Asp Pro Glu ... Cys His-NH2 (YDPEAASAPGSGNPCH-NH2)
- concentration sufficient to induce significantly enhanced migration of neurons (cerebellar microexplants): 3 nM
- migrating cerebellar cells distributed between 400-500 μm from microexplant margin (cerebellar microexplants; 3 nM, 2 days of culture): 7.3±2.8%
- migrating cerebellar cells distributed between 500-600 μm from microexplant margin (cerebellar microexplants; 3 nM, 2 days of culture): 13.2±13.9%
- distance from the cerebellar margin where most of the cells were distributed (cerebellar microexplants; two days after administration): 200-300 μm
- distance from the margin of a significant population of cells (cerebellar microexplants; two days after administration): 500-600 μm

Substance: SEPEARRAPGRKGGVVCASLAADW-NH2 [NRP-7 segment SW, 24-mer form of mouse NRP-7]
- rate of growth of OEG cells [1]: about 50%

Substance: KDPEARRAPGSLHPCLAAS-NH2 [NRP-2 segment KS, 19-mer fragment of NRP-2]
- migration induction of striatal neurons (embryonic striatal cells): substantial migration induction
